Broadly, the AC50 is the concentration giving half of the maximal activity seen.

We go through 66 compounds from PubChem BioAssay AID1259334 (Broad Institute, 2017).

Calls of active or inactive are those of the source. No stated cut-off is given here; in the data, active means AC50 below about 11 µM.

System in one assay: not listed separately
Nature of the assay: TNFa pathway inhibition counter-screen, B-lineage cells – dose response (AID 1259334).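 Further: cells stimulated with TNFa after compound preincubation.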 As to conditions: B cell line, TNFa signaling counterscreen reporter; at 0.0046 µM; stronger effect = lower value. Background: The purpose of a counterscreen is to sort out artefacts and off-target activity.
Turning to `C[C@@H]1CN([C@@H](C)CO)C(=O)Cc2cc(NC(=O)Cc3cn(C)c4ccccc34)ccc2O[C@H]1CN(C)Cc1ccc(C(F)(F)F)cc1`, the max activity was 14% (inactive).
The same measure, in the same setting: as for `NS(=O)(=O)c1cc2c(cc1C(F)(F)F)NC(Cc1ccccc1)NS2(=O)=O` (configuration not stated), the figure is 6.69% (inactive); as for `CCN1C(=O)C(CC(=O)Nc2ccc(OC)cc2)N(CCc2ccc(F)cc2)C1=S` (configuration not stated), 4.9% (inactive).
Same read-out and setting: for `COc1cccc(S(=O)(=O)N(C)C[C@H]2OCc3ccccc3-c3c(n(C)c4ccccc34)C(=O)N([C@@H](C)CO)C[C@H]2C)c1` the value was 10.1% (inactive).

Staying with this assay, now noted: B cell line, TNFa signaling counterscreen reporter; at 0.0135 µM; stronger effect = lower value.
As for `Cc1ccccc1-c1ccc(C2[C@@H]3CN(C(=O)Nc4cccc(F)c4)C[C@H]2N3)cc1` (some centres not stated), the max activity was -14.6% (inactive).
Still for that read-out and setting: for `C[C@@H]1CN([C@@H](C)CO)C(=O)c2c(c3ccccc3n2C)-c2ccccc2CO[C@H]1CN(C)Cc1cccc(C(=O)Nc2ccccc2N)c1` the value was 9.96% (inactive); for `C[C@@H]1CN([C@@H](C)CO)C(=O)Cc2cc(NS(=O)(=O)c3ccccc3)ccc2O[C@H]1CN(C)Cc1ccc(Cl)c(Cl)c1`, 16% (inactive).
Same read-out and setting: as for `N#C[C@H]1[C@H](c2ccc(C#CC3CCCCC3)cc2)[C@H](CO)N1C(=O)Nc1ccc(F)cc1`, the figure is 9.39% (inactive); as for `CCc1cc2c(COC(=O)c3cc(S(=O)(=O)N4CCOCC4)ccc3F)cc(=O)oc2cc1O`, 15.8% (inactive); as for `COc1ccc(S(=O)(=O)N(C)C[C@@H]2Oc3ccc(NC(=O)Nc4ccc(C(F)(F)F)cc4)cc3C(=O)N([C@@H](C)CO)C[C@@H]2C)cc1`, 7.2% (inactive).
Same read-out and setting: for `COc1cccc(OC)c1OCCNCC1COc2ccccc2O1` (configuration not stated) the value was 14.5% (inactive).

The same assay, now with this note: B cell line, TNFa signaling counterscreen reporter; at 0.042 µM; stronger effect = lower value.
With `CC(=O)Nc1ccc(S(=O)(=O)c2ccc(N)cc2)cc1`, the max activity is 6.36% (inactive).
The same measure, in the same setting: for `O=S(=O)(c1cccc2cnccc12)N1CCNCC1` the value was -11.3% (inactive).

Staying with this assay, now noted: B cell line, TNFa signaling counterscreen reporter; at 0.11 µM; stronger effect = lower value.
In the case of `C[C@@H]1CN([C@H](C)CO)C(=O)c2c(c3ccccc3n2C)-c2ccccc2CO[C@@H]1CN(C)S(=O)(=O)c1ccccc1C#N`, the max activity was 17.1% (inactive).

The assay is the same for the next values; noted with them: B cell line, TNFa signaling counterscreen reporter; at 0.12 µM; stronger effect = lower value.
`O=c1cc(-c2ccccc2)oc2cc(O)cc(O)c12`: the max activity was 45.8% (inactive).

Staying with this assay, now noted: B cell line, TNFa signaling counterscreen reporter; at 0.38 µM; stronger effect = lower value.
For `Oc1cc(O)cc(/C=C/c2ccc(O)c(O)c2)c1`, the max activity was 7.46% (inactive).
In the case of `CC(C)(C)c1cc(/C=C(\C#N)C(N)=S)cc(C(C)(C)C)c1O`, the max activity is -4.66% (inactive).
On the same count and under the same terms, as for `N#Cc1cccc(-c2ccc([C@@H]3[C@H](CO)N4CCCCN(C(=O)Nc5cccc(F)c5)C[C@@H]34)cc2)c1`, the figure is -15% (inactive).
In the case of `Oc1ccc(Cc2ccccc2)c2cccnc12`, the max activity was -12% (inactive).
For `C[C@@H]1CN([C@@H](C)CO)C(=O)c2c(c3ccccc3n2C)-c2ccccc2CO[C@@H]1CN(C)Cc1cccc(C(F)(F)F)c1`, the max activity is -7.66% (inactive).
On the same count and under the same terms, for `C[C@@H]1CCCCO[C@@H](CN(C)C(=O)C2CCCCC2)[C@@H](C)CN([C@H](C)CO)C(=O)c2cc(NS(=O)(=O)c3ccccc3)ccc2O1` the value was 15.5% (inactive).

The assay is the same for the next values; noted with them: B cell line, TNFa signaling counterscreen reporter; at 1.1 µM; stronger effect = lower value.
In the case of `COc1ccc(-c2cnc3c(c2)C(=O)N([C@H](C)CO)C[C@@H](C)[C@@H](CN(C)C(=O)Nc2c(C)noc2C)O3)cc1`, the max activity was 22.7% (inactive).
On the same count and under the same terms, as for `COc1ccc(CN2CC3(CN(C(=O)Cc4ccccc4)C3)c3c([nH]c4cc(OC)ccc34)[C@H]2CO)cc1`, the figure is 10.3% (inactive); as for `O=C(NCc1ccccn1)C1CCCN(S(=O)(=O)c2ccccc2)C1` (configuration not stated), 18.3% (inactive).
With `N#C[C@@H]1[C@@H](c2ccccc2-c2ccccc2)[C@@H](CO)N1C(=O)NC1CCCC1`, the max activity was 20.9% (inactive).
On the same count and under the same terms, for `COc1ccccc1C(=O)Nc1ccc2c(c1)C(=O)N(C)[C@H]1CC[C@H](CC(=O)Nc3cccc(C(C)C)c3)O[C@@H]1CO2` the value was 37.4% (inactive); for `Cc1noc(C)c1NC(=O)N(C)C[C@@H]1OCCCC[C@@H](C)Oc2ccc(NC(=O)Nc3ccc(C(F)(F)F)cc3)cc2C(=O)N([C@H](C)CO)C[C@H]1C`, 17% (inactive); for `N=C(N)c1ccc(OCCCCCOc2ccc(C(=N)N)cc2)cc1`, 17.9% (inactive).
Regarding `O=C1C(Br)=C(c2ccccc2)C(c2ccccc2)=C1c1ccccc1`, the max activity is -5.75% (inactive).
Take `CCCNC(=O)N1[C@H](CO)[C@H](c2ccc(-c3cccc(OC)c3)cc2)[C@@H]1C#N`: the max activity is 18% (inactive).
Same read-out and setting: as for `N#C[C@H]1[C@@H](c2ccc(C#CC3CCCCC3)cc2)[C@@H](CO)N1C(=O)Nc1ccc(F)cc1`, the figure is 10.8% (inactive); as for `CC(C)(C)n1cc(C(=O)c2ccc3ccccc3c2O)cn1`, -24.4% (inactive).
On the same count and under the same terms, as for `C[C@@H]1CCCCO[C@@H](CN(C)S(=O)(=O)c2ccc(Cl)cc2)[C@H](C)CN([C@H](C)CO)C(=O)c2cc(NC(=O)Nc3ccc(C(F)(F)F)cc3)ccc2O1`, the figure is 17% (inactive).
Still for that read-out and setting: for `NS(=O)(=O)c1nn2cc(-c3ccccc3)nc2s1` the value was 17.7% (inactive).
`CCCCC1C(=O)NC(=S)N(C)C1=O` (configuration not stated): the max activity is -7.17% (inactive).
For the compound `O=C(Nc1ccc([N+](=O)[O-])cc1Cl)c1cc(Cl)ccc1O`, the max activity was 14.6% (inactive).

The assay is the same for the next values; noted with them: B cell line, TNFa signaling counterscreen reporter; at 1.2 µM; stronger effect = lower value.
For `N#C[C@@H]1[C@@H](c2ccccc2-c2ccc(F)cc2)[C@H](CO)N1C(=O)NC1CCCCC1`, the max activity was 18.3% (inactive).

Still in this assay, the particulars now being: B cell line, TNFa signaling counterscreen reporter; at 3.5 µM; stronger effect = lower value.
On to `Cc1ccc(OCCn2cnc3c(N)ncnc32)cc1`, for which the max activity was -11.4% (inactive).
On the same count and under the same terms, for `Cc1ccc(-c2ccccc2[C@H]2[C@@H](C#N)N(c3ncc(-c4ccccc4)s3)[C@@H]2CO)cc1` the value was 7.84% (inactive); for `O=C(C[C@@H]1CC[C@H]2[C@@H](COC[C@@H](O)CN2Cc2cc(F)ccc2F)O1)NCc1ccc(Oc2ccccc2)cc1`, -19.8% (inactive).
On the same count and under the same terms, as for `CCSc1ccc(-c2cc(NC=O)c3ncc(-c4cccc(C(=O)N(C)C)c4)n3c2)cc1`, the figure is 45.8% (inactive); as for `O=C(c1ccc(F)cc1)N1C[C@@H]2N[C@H](C1)C2c1ccc(/C=C/c2ccccc2)cc1` (some centres not stated), 10.7% (inactive).
With `CC(C)OC(=O)CC1C(=O)NCCN1C(=S)NC(=O)c1cccs1` (configuration not stated), the max activity is 7.79% (inactive).
As to `Cc1ccc(S(=O)(=O)N2CCCC2CNC(=O)c2ccc3c(c2)OCO3)cc1` (configuration not stated), the max activity is -23.3% (inactive).
Still for that read-out and setting: as for `C[C@@H]1CN([C@H](C)CO)C(=O)c2cc(NC(=O)Nc3cccc4ccccc34)ccc2O[C@@H](C)CCCCO[C@H]1CN(C)Cc1ccc(C(F)(F)F)cc1`, the figure is -8.53% (inactive); as for `N#C[C@@H]1[C@H](c2ccc(C#CC3CCCC3)cc2)[C@H](CO)N1C(=O)Cc1ccccn1`, -8.57% (inactive); as for `O=C(CNCCO)N1N=C(c2cccs2)CC1c1cccs1` (configuration not stated), -16% (inactive).
The same measure, in the same setting: as for `COc1ccc(S(=O)(=O)Nc2ccc3c(c2)C(=O)N([C@@H](C)CO)C[C@@H](C)[C@@H](CN(C)Cc2ccc(C(F)(F)F)cc2)OCCCC[C@H](C)O3)cc1`, the figure is -16.5% (inactive); as for `O=C1C(=NO)CCc2ccccc21`, 35.6% (inactive); as for `Cc1noc(C)c1S(=O)(=O)Nc1ccc2c(c1)C(=O)N([C@@H](C)CO)C[C@H](C)[C@@H](CN(C)C(=O)Nc1cccc3ccccc13)OCCCC[C@H](C)O2`, -10.7% (inactive).
On the same count and under the same terms, for `O=C(C1CCC1)N1CCc2cc(S(=O)(=O)N3CCCCC3)ccc21` the value was -31.7% (inactive).
On to `CC(=O)NCCCC(=O)NC(CCC(=O)OCc1ccccc1)C(=O)OCc1ccccc1` (configuration not stated), for which the max activity is -20% (inactive).
On the same count and under the same terms, for `Cc1ccc(C(CC(=O)NCc2ccco2)c2ccc(OC(C)C)cc2)cc1` (configuration not stated) the value was 36% (inactive); for `Cc1ccc(-c2cc(C(=O)N3CCCC(C(F)(F)F)C3)c3ccccc3n2)o1` (configuration not stated), 21.4% (inactive).

Still in this assay, the particulars now being: B cell line, TNFa signaling counterscreen reporter; at 10 µM; stronger effect = lower value.
Turning to `C[C@@H]1CN([C@H](C)CO)C(=O)c2c(c3ccccc3n2C)-c2ccccc2CO[C@H]1CN(C)C(=O)Nc1ccccc1C(F)(F)F`, the max activity is -6.36% (inactive).
Consider `CN1C(=O)c2cc(NC(=O)c3cccc(Cl)c3)ccc2OC[C@@H]2O[C@@H](CC(=O)NC3CCCCC3)CC[C@H]21`, for which the max activity is -5.27% (inactive).
On the same count and under the same terms, as for `CC(=NNC(=S)N1CC2CCC(CC2)C1)c1nccs1`, the figure is 43.9% (inactive); as for `N#C[C@@H]1[C@@H](c2ccccc2)[C@H](CO)N1C(=O)CN1CCOCC1`, 46.9% (inactive); as for `O=C(NCCC(c1ccccc1)c1ccco1)c1cccs1` (configuration not stated), 46.8% (inactive).
Still for that read-out and setting: as for `OC(CCN1CCCCC1)c1ccc(-c2ccccc2)cc1` (configuration not stated), the figure is 32.8% (inactive).
Same read-out and setting: for `CCCNC(=O)N1[C@H](C#N)[C@@H](c2ccc(-c3cccc(OC)c3)cc2)[C@H]1CO` the value was 11.7% (inactive); for `Cc1noc(C)c1S(=O)(=O)N(C)C[C@H]1OCc2ccccc2-c2c(n(C)c3ccccc23)C(=O)N([C@H](C)CO)C[C@H]1C`, -12.3% (inactive).
With `CCc1cnc(N2[C@H](C#N)[C@@H](c3ccccc3C3=CCCC3)[C@@H]2CO)s1`, the max activity is 9.74% (inactive).
Take `CCc1cnc(N2[C@H](C#N)[C@@H](c3ccc(C#CC(C)C)cc3)[C@H]2CO)s1`: the max activity is 16.5% (inactive).
Regarding `C=C1C(=O)OC2C=C(CO)CCC=C(CO)CC(OC(=O)C(C)C)C12` (configuration not stated), the max activity was 28.9% (inactive).

Staying with this assay, now noted: B cell line, TNFa signaling counterscreen reporter; at 11 µM; stronger effect = lower value.
Regarding `C[C@@H]1CN([C@H](C)CO)C(=O)Cc2cc(NC(=O)Cc3cn(C)c4ccccc34)ccc2O[C@H]1CN(C)Cc1ccc(C(F)(F)F)cc1`, the max activity is -10.7% (inactive).

A further assay has as its system B cell line, TNFa signaling counterscreen reporter. The description is as above.
Conditions: not given
`O=C(c1ccc(F)cc1)N1C[C@@H]2N[C@H](C1)C2c1ccc(/C=C/c2ccccc2)cc1` (some centres not stated): the AC50 was 7.15 µM.
